We go through 1 compound from paper PMC4980415 (Psychopharmacology, 2016).

Where a name gives a salt, the structure may show the parent alone.

The subject of assay [1] is Alpha 1 (non-selective), adrenergic. Put plainly: Off-target binding, General SEP II panel. As to conditions: 10 μM ITI-214, mean of n = 2.
The subject of assay [2] is late memory consolidation in male Wistar rats. Description: Novel object recognition (NOR): late consolidation, drug 3 h after T1. Type of assay: in vivo, rat. As to conditions: for Exploration time e1 (T1) / Exploration time e2 (T2): 3 h after T1. As to the method:
The drug was administered, per os (po), by gavage to rats in a volume of 2 ml/kg body weight. Oral dosing solutions were prepared fresh daily. […] The pH of the dosing solution was adjusted to ~pH 5.5 by dropwise addition of 0.1 N NaOH in saline and volume adjusted by addition of saline in preparation for intraperitoneal (ip) dosing. […] Control treatments were always the vehicle solutions of the corresponding drugs.
The object recognition test was performed as described elsewhere (Ennaceur and Delacour [1988]; Akkerman et al. 2014). The apparatus consisted of a circular arena, 83 cm in diameter. Half of the 40-cm-high wall was made of gray polyvinyl chloride, the other half of transparent polyvinyl chloride. The light intensity was equal in the different parts of the apparatus, as fluorescent red tubes provided a constant illumination of about 20 lx on the floor of the apparatus. Two objects were placed in a symmetrical position at about 10 cm from the gray wall. Four different sets of objects were used. The different objects were (1) a cone consisting of a gray polyvinyl chloride base (maximal diameter 18 cm) with a collar on top made of brass (total height 16 cm), (2) a standard 1 L transparent glass bottle (diameter 10 cm, height 22 cm) filled with water, (3) a large metal cube (10.0 × 5.0 × 7.5 cm) with two holes (diameter 1.9 cm), and (4) a large aluminum cube with a tapering top (13.0 × 8.0 × 8.0 cm). The objects used in this study were carefully selected to be “novelty neutral,” that is to say the rats have no innate preference for one over the other. In all cases, objects were of sufficient size and weight that rats could not move the objects.
A testing session consisted of two trials. The duration of each trial was 3 min. During the first trial (T1), the apparatus contained two identical objects (samples). Rats were placed in the apparatus facing the wall at the middle of the front (transparent) segment. After the first exploration period, the rat was put back in its home cage. Subsequently, after a 24-h delay interval, the rat was put in the apparatus for the second trial (T2). The times spent in exploring each object during T1 and T2 were recorded manually using a personal computer.
Exploration was defined as follows: directing the nose to the object at a distance of no more than 2 cm and/or touching the object with the nose. Sitting on the object was not considered as exploratory behavior. In order to avoid the presence of olfactory cues, the objects were always thoroughly cleaned with a 70 % ethanol solution before each trial. All combinations and locations of objects were used in a balanced manner to reduce potential biases due to preferences for particular locations or objects.
During the first 2 weeks after animal arrival, the animals were handled daily. They were then adapted to the procedure over the period of 2 days by allowing them to explore the apparatus (without any objects) for 3 min twice each day. […] After this, the rats were assigned to treatment conditions in a balanced manner, thereby insuring an equal distribution of object combinations among the treatment conditions. […] In all experiments, a 24-h inter-trial interval was used. In all cases, the experimenter was unaware of the treatment conditions that were being tested.
The basic measure recorded was the time spent by each rat exploring an object during T1 and T2. The time spent in exploring the two identical samples was represented by “a1” and “a2.” The time spent in T2 in exploring the sample and new object was represented by “a” and “b,” respectively. The following variables were calculated: e1 = a1 + a2, e2 = a + b, and d2 = (b − a) / e2. The e1 and e2 are measures of the total exploration time of both objects during T1 and T2, respectively. Differences in exploration times between treatment conditions were analyzed using a t test or one-way ANOVA. […]

In the case of `CN1C(=O)c2c(nn(Cc3ccc(-c4cccc(F)n4)cc3)c2Nc2ccccc2)N2C1=N[C@@H]1CCC[C@@H]12` [ITI-214, (6aR,9aS)-2-(4-(6-fluoropyridin-2-yl)benzyl)-5-methyl-3-(phenylamino)-5,6a,7,8,9,9a-hexahydrocyclopenta-[4,5]imidazo[1,2-a]pyrazolo[4,3-e]pyrimidin-4-(2H)-one phosphate salt], the “% Binding” value in assay [1] amounted to 40.90%. The “Exploration time e1 (T1)” value in assay [2] (0.1 mg/kg po) is recorded as 26.20 (1.95) s; in assay [2] (0.3 mg/kg po), 29.36 (3.22) s; in assay [2] (1 mg/kg po) it was 25.93 (1.53) s; in assay [2] (3 mg/kg po), 25.62 (1.89) s. For the same compound, the “Exploration time e2 (T2)” value was 32.81 (2.24) s in assay [2] (0.1 mg/kg po), 29.64 (2.15) s in assay [2] (0.3 mg/kg po), 27.86 (2.43) s in assay [2] (1 mg/kg po) and 28.34 (2.95) s in assay [2] (3 mg/kg po). Further, the “effect on exploratory behavior” value in assay [2] (early and late consolidation experiments) is recorded as “no effects on exploratory behavior”. Moreover, the “full effective dose (d2 different from chance and from vehicle), late consolidation” value in assay [2] (po 3 h after T1) is listed as 1 mg/kg.
